Assay results as given in US5026731A, “Pharmaceutical composition and method of treating psychoses” (Schering Corporation, priority 1990, dated 1991).

How the values were obtained:
dopamine D-1 receptor = biological target: T1, dopamine D-1 receptor (Bos taurus, UniProt Q95136); assay: Competitive inhibition binding assay, 3H-Sch 23390 (D1-binding), bovine striatal membranes; settings: for Ki: 3H-Sch 23390 binding, bovine striatal membranes, 30 minute at 37° C., Tris-HCl pH 7.4
T1 construct: Striata were dissected on ice and membranes prepared as described earlier; from tissue; host or cells: bovine striatum (membranes; brains from a local slaughter house)
Protocol: (§1) Compounds of represented by formula I may be synthesized as disclosed herein and diluted in 0.05M Tris buffer, pH 7.4, as required.
(§2) Bovine brains were obtained from a local slaughter house, on ice. […] Briefly, the striata were homogenized in 20 volumes of Tris-HCl (50 mM) buffer, pH 7.4, using a Polytron (Brinkmann) homogenizer, setting 7; membranes were washed by centrigugation (20,000×g) and resuspending in buffer, twice, and finally resuspended in assay buffer (Tris-HCl, 50 mM, pH 7.4, containing 120 mM NaCl, 5 mM KCl, […], 1 mM MgCl2). At least 3-4 different pools of membrane were processed and stored at -80° C.
(§3) For competition studies, several concentration of test drug or standard were included, ranging from 10^-4 to 10^-3. Tubes were incubated, 30 minute incubations at 37° C. were terminated by rapid filtration under vacuum, on to GF/B filters, presoaked in 0.3% polyethyleneamine (PEl), with three 5 ml washes.

D-2 receptor = biological target: T2, D-2 receptor (Bos taurus, UniProt P20288); assay: Competitive inhibition binding assay, 3H-spiperone (D2-binding), bovine striatal membranes
T2 construct: Striata were dissected on ice and membranes prepared as described earlier; from tissue; host or cells: bovine striatum (membranes; brains from a local slaughter house)
Protocol: as §1, §2, §3

[1] = 3H-spiperone binding, bovine striatal membranes, 30 minute at 37° C., Tris-HCl pH 7.4

T1 sequence (Q95136 whole entry): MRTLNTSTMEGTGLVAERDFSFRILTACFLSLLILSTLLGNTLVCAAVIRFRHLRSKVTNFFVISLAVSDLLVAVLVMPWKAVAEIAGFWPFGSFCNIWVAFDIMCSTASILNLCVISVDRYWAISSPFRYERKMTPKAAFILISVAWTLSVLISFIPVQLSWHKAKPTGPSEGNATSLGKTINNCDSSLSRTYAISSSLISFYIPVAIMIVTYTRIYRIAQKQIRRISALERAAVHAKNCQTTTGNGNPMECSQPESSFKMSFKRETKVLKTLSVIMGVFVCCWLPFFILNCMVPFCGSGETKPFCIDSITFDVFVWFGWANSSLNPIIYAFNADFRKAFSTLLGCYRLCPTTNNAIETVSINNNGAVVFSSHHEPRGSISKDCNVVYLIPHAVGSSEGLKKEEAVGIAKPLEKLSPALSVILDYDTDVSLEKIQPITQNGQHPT
T2 sequence (P20288 whole entry): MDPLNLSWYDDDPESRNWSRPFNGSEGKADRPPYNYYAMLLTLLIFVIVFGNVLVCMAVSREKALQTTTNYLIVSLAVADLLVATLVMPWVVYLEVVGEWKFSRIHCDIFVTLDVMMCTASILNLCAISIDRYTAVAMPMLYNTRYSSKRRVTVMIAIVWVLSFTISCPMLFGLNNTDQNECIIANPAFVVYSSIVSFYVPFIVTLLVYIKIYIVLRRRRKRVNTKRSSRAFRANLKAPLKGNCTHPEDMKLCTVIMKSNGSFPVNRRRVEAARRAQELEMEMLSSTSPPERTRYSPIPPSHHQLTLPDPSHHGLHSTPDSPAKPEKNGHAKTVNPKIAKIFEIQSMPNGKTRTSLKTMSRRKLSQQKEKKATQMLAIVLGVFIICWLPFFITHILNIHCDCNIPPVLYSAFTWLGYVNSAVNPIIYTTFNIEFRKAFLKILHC

Row | Ki (dopamine D-1 receptor) [nM] | Ki (D-2 receptor; [1]) [nM] | D1 receptor selectivity (D1 versus D2) (dopamine D-1 receptor; from the Ki data of Table 1, D1 vs D2) | Compound | Ki (D-2 receptor; pH 7.4) [nM]
1 | 0.8 | 800 | – | CN1CCc2cc(Cl)c(O)cc2[C@@H](c2ccccc2)C1 [Sch 23390, (R)-(+)-8-chloro-2,3,4,5-tetrahydro-3-methyl-5-phenyl-1H-3-benzazepin-7-olhemimaleate] | –
2 | 1200 to 2000 | 200000 | more than 100 fold | CC(=O)Nc1cc(O)ccc1O [2,5-dihydroxyacetanilide] | –
3 | – | – | – | (+) butaclamol | 1
